# Source: ChEMBL document CHEMBL5108027, “An unanticipated discovery of novel naphthalimidopropanediols as potential broad-spectrum antibacterial members” (Eur J Med Chem, 2022)
# Active and inactive are the calls of the source. The rule behind the calls is not given here.
# Key:
# [1] = Hemolytic activity in human RBC assessed as hemolytic rate at 2 to 512 ug/ml and measured after 1 hr; format: toxicity, cell-based, Erythrocyte; conditions: human red blood cells (erythrocytes), at 2 to 512 µg/mL, dose 2-512 µg/ml, read-out: Activity
# [2] = Selectivity ratio of HC50 for hemolytic activity in human RBC to MIC for antibacterial activity against Staphylococcus aureus; format: toxicity; conditions: human red blood cells (erythrocytes)
# Staphylococcus aureus [3] = experiment: Antibacterial activity against Staphylococcus aureus ATCC 25923 measured by Muller-Hinton broth based microdilution assay; format: functional
# Acinetobacter baumannii = experiment: Antibacterial activity against Acinetobacter baumannii measured by Muller-Hinton broth based microdilution assay; format: functional
# Staphylococcus aureus [4] = experiment: Antibiofilm activity in Staphylococcus aureus at 1 to 8 times MIC measured by Alamar blue assay; format: functional, organism-based
# Pseudomonas aeruginosa [5] = experiment: Antibacterial activity against Pseudomonas aeruginosa measured by Muller-Hinton broth based microdilution assay; format: functional
# Staphylococcus aureus [6] = experiment: Induction of oxidative stress in Staphylococcus aureus assessed as decrease in GSH activity at 1 to 8 times MIC measured after 6 hrs by Ellman's assay; format: functional, organism-based
# [7] = Hemolytic activity in human RBC measured after 1 hr; format: toxicity, cell-based, Erythrocyte; conditions: human red blood cells (erythrocytes)
# Enterococcus faecalis = experiment: Antibacterial activity against Enterococcus faecalis measured by Muller-Hinton broth based microdilution assay; format: functional
# Escherichia coli [8] = experiment: Antibacterial activity against Escherichia coli measured by Muller-Hinton broth based microdilution assay; format: functional
# Staphylococcus aureus [9] = experiment: Induction of inner membrane permeabilization in Staphylococcus aureus by measuring increase in fluorescence intensity at 1 to 8 times MIC by calcein-AM/PI staining based fluorescence analysis; format: functional, organism-based
# Staphylococcus aureus [10] = experiment: Induction of membrane depolarization in Staphylococcus aureus at 0.5 to 2 times MIC measured upto 1 hr by DiSC35 dye-based fluorescence assay; format: functional, organism-based
# L929 = experiment: Cytotoxicity against mouse L929 cells assessed as effect on cell growth at 0.25 to 0.5 ug/ml incubated for 24 hrs by MTT assay; format: toxicity, cell-based; conditions: l929, 24 h, dose 0.25-0.5 µg/ml
# Escherichia coli [11] = experiment: Antibacterial activity against Escherichia coli ATCC 25922 measured by Muller-Hinton broth based microdilution assay; format: functional
# Staphylococcus aureus [12] = experiment: Antibacterial activity against methicillin-resistant Staphylococcus aureus N315 measured by Muller-Hinton broth based microdilution assay; format: functional
# Staphylococcus aureus [13] = experiment: Disruption of membrane integrity in Staphylococcus aureus assessed as increase in protein leakage by measuring increase in absorbance 1 to 8 times MIC measured for 6 hrs by Bradford assay; format: functional, organism-based
# Staphylococcus aureus [14] = experiment: Antibacterial activity against Staphylococcus aureus assessed as reduction in LDH activity at 1 to 8 times MIC measured after 6 hrs by microplate reader method; format: functional; design: scale not given: the % may be the effect or the level left
# Pseudomonas aeruginosa [15] = experiment: Antibacterial activity against Pseudomonas aeruginosa ATCC 27853 measured by Muller-Hinton broth based microdilution assay; format: functional
# Staphylococcus aureus [16] = experiment: Inhibition of bacterial growth of Staphylococcus aureus at 1 to 2 times MIC; format: functional
# Staphylococcus aureus [17] = experiment: Antibacterial activity against Staphylococcus aureus measured after 16 passages by resistance development assay; format: functional, organism-based
# Staphylococcus aureus [18] = experiment: Antibacterial activity against Staphylococcus aureus measured by Muller-Hinton broth based microdilution assay; format: functional
# Staphylococcus aureus [19] = experiment: Bactericidal activity against Staphylococcus aureus assessed as reduction in number of colonies at 0.5 to 2 times MIC measured within 6 hrs by time-kill assay; format: functional, organism-based
# Staphylococcus aureus [20] = experiment: Antibacterial activity against Staphylococcus aureus ATCC 29213 measured by Muller-Hinton broth based microdilution assay; format: functional
# Staphylococcus aureus [21] = experiment: Induction of oxidative stress in Staphylococcus aureus assessed as increase in intracellular ROS level at 1 to 8 times MIC measured after 6 hrs by DCFH-DA staining method; format: functional, organism-based
# Staphylococcus aureus [22] = experiment: Disruption of membrane integrity in Staphylococcus aureus at 8 times MIC by calcein-AM/PI staining based fluorescence analysis; format: functional, organism-based
# Staphylococcus aureus [23] = experiment: Disruption of membrane integrity in Staphylococcus aureus assessed as increase in nucleic acid leakage by measuring increase in absorbance 1 to 8 times MIC measured for 6 hrs by spectrophotometry; format: functional, organism-based
# Staphylococcus aureus [24] = experiment: Inhibition of biofilm formation in Staphylococcus aureus at 1 to 8 times MIC measured after 24 hrs by crystal violet staining method; format: functional, organism-based
# Staphylococcus aureus [25] = experiment: Antibacterial activity against Staphylococcus aureus assessed as reduction in metabolic activity at 1 to 8 times MIC measured after 6 hrs by Alamar blue assay; format: functional, organism-based
# Klebsiella pneumoniae = experiment: Antibacterial activity against Klebsiella pneumoniae measured by Muller-Hinton broth based microdilution assay; format: functional
# Pseudomonas aeruginosa [26] = experiment: Antibacterial activity against Pseudomonas aeruginosa measured after 16 passages by resistance development assay; format: functional, organism-based
# Pseudomonas aeruginosa [27] = experiment: Induction of inner membrane permeabilization in Pseudomonas aeruginosa by measuring increase in fluorescence intensity at 1 to 8 times MIC by calcein-AM/PI staining based fluorescence analysis; format: functional, organism-based
# Pseudomonas aeruginosa [28] = experiment: Bactericidal activity against Pseudomonas aeruginosa assessed as reduction in number of colonies at 0.5 to 2 times MIC measured within 6 hrs by time-kill assay; format: functional, organism-based
# Pseudomonas aeruginosa [29] = experiment: Induction of outer membrane permeabilization in Pseudomonas aeruginosa preincubated for 30 mins at 1 to 8 times MIC measured by NPN fluorescent dye based assay; format: functional, organism-based
# [30] = Selectivity ratio of HC50 for hemolytic activity in human RBC to MIC for antibacterial activity against Pseudomonas aeruginosa; format: toxicity; conditions: human red blood cells (erythrocytes)
# Pseudomonas aeruginosa [31] = experiment: Disruption of membrane integrity in Pseudomonas aeruginosa assessed as increase in protein leakage by measuring increase in absorbance 1 to 8 times MIC measured for 6 hrs by Bradford assay; format: functional, organism-based
# Pseudomonas aeruginosa [32] = experiment: Induction of oxidative stress in Pseudomonas aeruginosa assessed as decrease in GSH activity at 1 to 8 times MIC measured after 6 hrs by Ellman's assay; format: functional, organism-based
# Pseudomonas aeruginosa [33] = experiment: Antibacterial activity against Pseudomonas aeruginosa assessed as reduction in metabolic activity at 1 to 8 times MIC measured after 6 hrs by Alamar blue assay; format: functional, organism-based
# Pseudomonas aeruginosa [34] = experiment: Inhibition of biofilm formation in Pseudomonas aeruginosa at 1 to 8 times MIC measured after 24 hrs by crystal violet staining method; format: functional, organism-based
# Pseudomonas aeruginosa [35] = experiment: Antibacterial activity against Pseudomonas aeruginosa assessed as reduction in LDH activity at 1 to 8 times MIC measured after 6 hrs by microplate reader method; format: functional; design: scale not given: the % may be the effect or the level left
# Pseudomonas aeruginosa [36] = experiment: Antibiofilm activity in Pseudomonas aeruginosa at 1 to 8 times MIC measured by Alamar blue assay; format: functional, organism-based
# Pseudomonas aeruginosa [37] = experiment: Induction of membrane depolarization in Pseudomonas aeruginosa at 0.5 to 2 times MIC measured upto 1 hr by DiSC35 dye-based fluorescence assay; format: functional, organism-based
# Pseudomonas aeruginosa [38] = experiment: Induction of oxidative stress in Pseudomonas aeruginosa assessed as increase in intracellular ROS level at 1 to 8 times MIC measured after 6 hrs by DCFH-DA staining method; format: functional, organism-based
# Pseudomonas aeruginosa [39] = experiment: Inhibition of bacterial growth of Pseudomonas aeruginosa at 1 to 2 times MIC; format: functional
# Pseudomonas aeruginosa [40] = experiment: Disruption of membrane integrity in Pseudomonas aeruginosa assessed as increase in nucleic acid leakage by measuring increase in absorbance 1 to 8 times MIC measured for 6 hrs by spectrophotometry; format: functional, organism-based
# Pseudomonas aeruginosa [41] = experiment: Disruption of membrane integrity in Pseudomonas aeruginosa at 8 times MIC by calcein-AM/PI staining based fluorescence analysis; format: functional, organism-based
smiles,measurement,setting,value
O=C1c2cccc3c(N/N=C/c4cccc(Cl)c4)ccc(c23)C(=O)N1C(CO)CO,hemolysis at 1 h,[1],< 5%
same,selectivity ratio,[2],> 4000
same,MIC,Staphylococcus aureus [3],32 µg/mL
same,MIC,Acinetobacter baumannii,64 µg/mL
same,Activity,Staphylococcus aureus [4],Active
same,MIC,Pseudomonas aeruginosa [5],64 µg/mL
same,Activity,Staphylococcus aureus [6],Active
same,HC50 at 1 h,[7],> 1000 µg/mL
same,MIC,Enterococcus faecalis,64 µg/mL
same,MIC,Escherichia coli [8],64 µg/mL
same,Activity,Staphylococcus aureus [9],Active
same,Activity,Staphylococcus aureus [10],Active
same,Activity,L929,Non-Toxic
same,MIC,Escherichia coli [11],32 µg/mL
same,MIC,Staphylococcus aureus [12],64 µg/mL
same,Activity,Staphylococcus aureus [13],Active
same,Activity,Staphylococcus aureus [14],70%
same,MIC,Pseudomonas aeruginosa [15],2 µg/mL
same,inhibition,Staphylococcus aureus [16],Active
same,Activity,Staphylococcus aureus [17],Active
same,MIC,Staphylococcus aureus [18],0.25 µg/mL
same,Activity,Staphylococcus aureus [19],Active
same,MIC,Staphylococcus aureus [20],8 µg/mL
same,Activity,Staphylococcus aureus [21],Active
same,Activity,Staphylococcus aureus [22],Active
same,Activity,Staphylococcus aureus [23],Active
same,inhibition,Staphylococcus aureus [24],Active
same,Activity,Staphylococcus aureus [25],Active
same,MIC,Klebsiella pneumoniae,8 µg/mL
O=C1c2cccc3c(N/N=C/c4ccc5ccccc5c4)ccc(c23)C(=O)N1C(CO)CO,hemolysis at 1 h,[1],< 5%
same,Activity,Pseudomonas aeruginosa [26],Active
same,Activity,Pseudomonas aeruginosa [27],Active
same,Activity,Pseudomonas aeruginosa [28],Active
same,MIC,Staphylococcus aureus [3],64 µg/mL
same,Activity,Pseudomonas aeruginosa [29],Active
same,MIC,Acinetobacter baumannii,64 µg/mL
same,MIC,Pseudomonas aeruginosa [5],0.5 µg/mL
same,HC50 at 1 h,[7],> 1000 µg/mL
same,MIC,Enterococcus faecalis,64 µg/mL
same,MIC,Escherichia coli [8],16 µg/mL
same,Activity,L929,Non-Toxic
same,MIC,Escherichia coli [11],32 µg/mL
same,selectivity ratio,[30],> 2000
same,Activity,Pseudomonas aeruginosa [31],Active
same,MIC,Staphylococcus aureus [12],64 µg/mL
same,Activity,Pseudomonas aeruginosa [32],Active
same,Activity,Pseudomonas aeruginosa [33],Active
same,inhibition,Pseudomonas aeruginosa [34],Active
same,Activity,Pseudomonas aeruginosa [35],70%
same,MIC,Pseudomonas aeruginosa [15],1 µg/mL
same,Activity,Pseudomonas aeruginosa [36],Active
same,MIC,Staphylococcus aureus [18],4 µg/mL
same,MIC,Staphylococcus aureus [20],128 µg/mL
same,Activity,Pseudomonas aeruginosa [37],Active
same,Activity,Pseudomonas aeruginosa [38],Active
same,inhibition,Pseudomonas aeruginosa [39],Active
same,Activity,Pseudomonas aeruginosa [40],Active
same,MIC,Klebsiella pneumoniae,32 µg/mL
same,Activity,Pseudomonas aeruginosa [41],Active
